Assay results published in patent US8507545B2, “Cytotoxic T cell activator comprising EP4 agonist” (National University Corporation, Hamamatsu University …, priority 2007, dated 2013).

Key:
HSVgpB-specific CTLs = assay: Activation of cytotoxic T cells in cervical lymph nodes after tape stripping (HSVgpB pentamer flow cytometry); assay type: in vivo, C57BL/6(B6) mice; conditions: Example 1(3)
Protocol: (§1) The corneal layers of the auricles of C57BL/6(B6) mice were destroyed by repeating a stripping procedure using an adhesive tape in 10 cycles, and an antigen peptide or EP4 agonist was applied as a test substance. The antigen peptide used was a melanoma-specific antigen peptide (Accord K.K. Peptide Business Department; hereinafter abbreviated TRP-2) in solution in 70% ethanol; 10 μg was applied to one side of each auricle. The EP4 agonist used was 11α,15α,-dihydroxy-9-oxo-16-(3-methoxymethylphenyl)-17,18,19,20-tetranol-3,7-dithiaprost-13E-enoic acid (hereinafter abbreviated Compound A-(1)) in solution in a mixed solvent of acetone:olive oil=10:1; 20 μL of 100 μM solution was applied to one side of each auricle. One week after application of the test substance, the cervical lymph nodes were removed. The frequency of TRP-2-specific CTLs was determined relative to the total number of mononucleocytes in the cervical lymph nodes as 100 by a flowcytometric analysis (FACScaliber; Becton, Dickinson and Company.) with a tetramer (Medical & Biological Laboratories Co., Ltd.). Four experimental groups were established: (1) a group undergoing tape stripping (hereinafter abbreviated TS) alone, (2) a group undergoing TS followed by application of TRP-2, (3) a group undergoing TS followed by application of Compound A-(1), and (4) a group undergoing TS followed by application of TRP-2 and Compound A-(1).
The same procedures as Example 1(1) were followed except that the antigen peptide used was the herpes simplex virus-specific antigen HSV glycoprotein B (hereinafter abbreviated HSVgpB), and that a flowcytometric analysis with a pentamer (ProImmune Company) was performed, and the action of each compound to activate cytotoxic T cells was evaluated. Five experimental groups were established: (1) a group undergoing TS alone, (2) a group undergoing TS followed by application of HSVgpB, (3) a group undergoing TS followed by application of HSVgpB and Compound A-(1), (4) a group undergoing TS followed by application of HSVgpB and Compound L-(1), and (5) a group undergoing TS followed by application of HSVgpB and Compound M-(1).
Note that the herpes simplex virus-specific antigen peptide HSVgpB was synthesized on the basis of the partial sequence shown by SEQ ID NO. 2 (Virology, Vol. 195, pp. 62-70, (1993)) (ProImmune Company).

TRP-2-specific CTLs [1] = assay: Activation of cytotoxic T cells in cervical lymph nodes after tape stripping (TRP-2 tetramer flow cytometry); assay type: in vivo, C57BL/6(B6) mice; conditions: relative to total mononucleocytes as 100
Protocol: as §1
Note that the melanoma-specific antigen peptide TRP-2 was synthesized on the basis of a partial sequence described in the aforementioned Non-patent Document 1 (SEQ ID NO. 1) (Accord K.K. Peptide Business Department).
The same procedures as Example 1(1) were followed except that the EP4 agonists used were 4-[(2-{(2R)-2-[(1E,3S)-4-(4-fluorophenyl)-3-hydroxybut-1-enyl]-5-oxopyrrolidin-1-yl}ethyl)sulfanyl]butanoic acid (hereinafter abbreviated Compound L-(1)) and 4-{[2-((1R,2R,3R)-3-hydroxy-2-{(1E,3S)-3-hydroxy-4-[3-(methoxymethyl)phenyl]but-1-enyl}-5-oxocyclopentyl)ethyl]sulfanyl}butanoic acid (hereinafter abbreviated Compound M-(1)); the action of each compound to activate cytotoxic T cells was evaluated. Four experimental groups were established: (1) a group undergoing TS alone, (2) a group undergoing TS followed by application of TRP-2, (3) a group undergoing TS followed by application of TRP-2 and Compound L-(1), and (4) a group undergoing TS followed by application of TRP-2 and Compound M-(1).

TRP-2-specific CTLs [2] = assay: Activation of cytotoxic T cells in isolated Langerhans cells co-cultured with lymphocytes; assay type: cell-based, C57BL/6(B6) mouse
Protocol: A given area of an auricle epidermal sheet was removed from the corneal layer of one auricle of each C57BL/6(B6) mouse, and trypsinized to yield an epidermal cell suspension. The epidermal cell suspension obtained was subjected to panning using an antibody specific for I-A^b antigen to isolate epidermal Langerhans cells. After each test substance (TRP-2 (concentration; 10 μg/mL) and Compound A-(1) (1 μM)) was added to the Langerhans cells isolated (cell density; 10^5 cells per mL), the cells were cultured with a medium (cRPMI1640 medium; Sigma-Aldrich Japan). Half a day later, the cells were co-cultured with splenocytic lymphocytes isolated from […] for 7 days. Subsequently, by a flowcytometric analysis (FACScaliber; Becton, Dickinson and Company.) using a tetramer (Medical & Biological Laboratories Co., Ltd.), the frequency of TRP-2-specific CTLs was determined relative to the total number of mononucleocytes in the medium as 100. Three experimental groups were established: (1) a group with no treatment, (2) a group with the addition of TRP-2, and (3) a group with the addition of both TRP-2 and Compound A-(1).

B16 melanoma cells = assay: Melanoma growth suppressing action; assay type: in vivo, B6 mouse; conditions: TS followed by application of TRP-2, experimental group (2)
Protocol: The corneal layer was removed from the right auricle of each B6 mouse by TS in the same manner as Example 1, and test substances (TRP-2 and Compound A-(1)) were applied there; 2 weeks later, the left auricle was treated in the same manner. The test substances applied to both ears were used in the same combination; TRP-2 was applied at 10 μg for one side of each auricle, and Compound A-(1) was applied at 20 μl, of 100 μM solution for one side of each auricle. Four days after the above-described treatment, each mouse received 2×10^5 B16 melanoma cells (RIKEN's Cell Bank) by subcutaneous transplantation, and examined for tumor growth. Experimental groups were established as in Example 1(1) (5 animals in each group).
Tumor diameter (mm), as an index of tumor growth, was measured in each group at various days after inoculation of B16 melanoma cells; the results are shown in FIG. 1.

[3] = TS followed by application of HSVgpB and the EP4 agonist
[4] = Example 1(2), TS followed by application of TRP-2 and the EP4 agonist, cervical lymph nodes

With `O=C(O)CCCSCCN1C(=O)CC[C@@H]1/C=C/[C@@H](O)Cc1ccc(F)cc1` [Compound L-(1), 4-[(2-{(2R)-2-[(1E,3S)-4-(4-fluorophenyl)-3-hydroxybut-1-enyl]-5-oxopyrrolidin-1-yl}ethyl)sulfanyl]butanoic acid] the “Ratio of HSVgpB-specific CTLs” value (HSVgpB-specific CTLs; [3]) was 0.29 and the “Ratio of TRP-2-specific CTLs” value (TRP-2-specific CTLs [1]; [4]) was 1.92.

In the case of `COCc1cccc(C[C@H](O)/C=C/[C@H]2[C@H](O)CC(=O)[C@@H]2CCSCCCC(=O)O)c1` [Compound M-(1), 4-{[2-((1R,2R,3R)-3-hydroxy-2-{(1E,3S)-3-hydroxy-4-[3-(methoxymethyl)phenyl]but-1-enyl}-5-oxocyclopentyl)ethyl]sulfanyl}butanoic acid], the “Ratio of HSVgpB-specific CTLs” value (HSVgpB-specific CTLs; [3]) is reported as 0.30 and the “Ratio of TRP-2-specific CTLs” value (TRP-2-specific CTLs [1]; [4]) is reported as 1.66.

“HSVgpB: herpes simplex virus-specific antigen peptide; Herpes Simplex Virus glycoprotein B 498-505 (SEQ ID NO. 2) (SSIEFARL; Herpes Simplex Virus glycoprotein B 498-505) [reference compound]” was tested, and the “Ratio of HSVgpB-specific CTLs” value (HSVgpB-specific CTLs; TS followed by application of HSVgpB alone) was 0.25.

“TRP-2: melanoma-specific antigen peptide; tyrosinase-related protein 2 181-188, partial sequence VYDFFVWL (SEQ ID NO. 1) (Tyrosinase-related protein 2 residues 181-188) [reference compound]” was tested, and the “Ratio of TRP-2-specific CTLs” value (TRP-2-specific CTLs [2]; addition of TRP-2 (10 μg/mL) alone, 7 days co-culture, relative to total mononucleocytes in the medium as 100) was 3.2, the “ratio of TRP-2-specific CTLs in B6 splenocytic lymphocytes” value (TRP-2-specific CTLs [2]; addition of TRP-2, experimental group (2)) was “increased” and the “tumor growth suppressing action compared with an EP4 agonist alone” value (B16 melanoma cells) was “equivalent”. For the same compound, the “Ratio of TRP-2-specific CTLs” value (TRP-2-specific CTLs [1]; Example 1(1), TS followed by application of the test substance alone, cervical lymph nodes one week after application) was 0.35 and the “Ratio of TRP-2-specific CTLs” value (TRP-2-specific CTLs [1]; Example 1(2), TS followed by application of TRP-2 alone, cervical lymph nodes) was 1.28.
